We go through 2 compounds from patent US8772504B2, “Substituted benzoxazole, benzimidazole, oxazolopyridine and imidazopyridine derivatives as gamma secretase modulators” (Janssen Pharmaceuticals, Inc., priority 2009, dated 2014).

The subject of assay [1] is Aβtotal. Kind of assay: In vivo efficacy Method 2: brain soluble Aβtotal by ELISA. More on the design: species or system mouse. To be noted: Table 4b, single oral dose, overnight fasted non-transgenic animals, sacrificed after 4 h, soluble fraction of brain homogenates. The source says:
(§1) To determine whether acute administration of an Aβ42 lowering agent would reduce Aβ42 levels in vivo, non-transgenic rodents, e.g. mice or rats were used. Animals treated with the Aβ42 lowering agent were examined and compared to those untreated or treated with vehicle and brain levels of soluble Aβ42 and total Aβ were quantitated by standard techniques, for example, using ELISA. Treatment periods varied from hours (h) to days and were adjusted based on the results of the Aβ42 lowering once a time course of onset of effect could be established.
(§2) A typical protocol for measuring Aβ42 lowering in vivo is shown but it is only one of many variations that could be used to optimize the levels of detectable Aβ. For example, Aβ42 lowering compounds were formulated in 20% of Captisol® (a sulfobutyl ether of β-cyclodextrin) in water or 20% hydroxypropyl β cyclodextrin. The Aβ42 lowering agents were administered as a single oral dose or by any acceptable route of administration to overnight fasted animals. After 4 h, the animals were sacrificed and Aβ42 levels were analysed.
(§3) Blood was collected by decapitation and exsanguinations in EDTA-treated collection tubes. Blood was centrifuged at 1900 g for 10 minutes (min) at 4° C. and the plasma recovered and flash frozen for later analysis. The brain was removed from the cranium and hindbrain. The cerebellum was removed and the left and right hemisphere were separated. The left hemisphere was stored at −18° C. for quantitative analysis of test compound levels. The right hemisphere was rinsed with phosphate-buffered saline (PBS) buffer and immediately frozen on dry ice and stored at −80° C. until homogenization for biochemical assays.
(§4) Mouse brains from non-transgenic animals were resuspended in 8 volumes of 0.4% DEA (diethylamine)/50 mM NaCl containing protease inhibitors (Roche-11873580001 or 04693159001) per gram of tissue, e.g. for 0.158 g brain, add 1.264 ml of 0.4% DEA. All samples were homogenized in the FastPrep-24 system (MP Biomedicals) using lysing matrix D (MPBio #6913-100) at 6 m/s for 20 seconds. Homogenates were centrifuged at 221.300×g for 50 min. The resulting high speed supernatants were then transferred to fresh eppendorf tubes. Nine parts of supernatant were neutralized with 1 part 0.5 M Tris-HCl pH 6.8 and used to quantify Aβtotal and Aβ42.
(§5) To quantify the amount of Aβtotal and Aβ42 in the soluble fraction of the brain homogenates, Enzyme-Linked-Immunosorbent-Assays were used . Briefly, the standards (a dilution of synthetic Aβ1-40 and Aβ1-42, Bachem) were prepared in 1.5 ml Eppendorf tube in Ultraculture, with final concentrations ranging from 10000 to 0.3 pg/ml. The samples and standards were co-incubated with HRPO-labelled N-terminal antibody for Aβ42 detection and with the biotinylated mid-domain antibody 4G8 for Aβtotal detection. 50 μl of conjugate/sample or conjugate/standards mixtures were then added to the antibody-coated plate (the capture antibodies selectively recognize the C-terminal end of Aβ42, antibody JRF/cAβ42/26, for Aβ42 detection and the N-terminus of Aβ, antibody JRF/rAβ/2, for Aβtotal detection). The plate was allowed to incubate overnight at 4° C. in order to allow formation of the antibody-amyloid complex. Following this incubation and subsequent wash steps the ELISA for Aβ42 quantification was finished by addition of Quanta Blu fluorogenic peroxidase substrate according to the manufacturer's instructions (Pierce Corp., Rockford, Ill.). A reading was performed after 10 to 15 min (excitation 320/emission 420).
For Aβtotal detection, a Streptavidine-Peroxidase-Conjugate was added, followed 60 min later by an additional wash step and addition of Quanta Blu fluorogenic peroxidase substrate according to the manufacturer's instructions (Pierce Corp., Rockford, Ill.). A reading was performed after 10 to 15 min (excitation 320 nm/emission 420 nm).
A general note: An ELISA detects its analyte on a solid surface through an enzyme-linked reagent.

The test system of assay [2] is Aβ42. Kind of assay: In vivo efficacy Method 2: brain soluble Aβ42 by ELISA. Also on record: species or system mouse. Conditions: Table 4b, single oral dose, overnight fasted non-transgenic animals, sacrificed after 4 h, soluble fraction of brain homogenates.
Source text: as §1, §2, §3, §4, §5
In this model at least 20% Aβ42 lowering compared to untreated animals would be advantageous.

Each structure is given as a SMILES string.

As to `COc1nc(Nc2cccc3c2nc(-c2ccc(F)cc2)n3C)ccc1-n1cnc(C)c1` [Compound 15], the “Aβtotal (% Ctrl) _Mean” value in assay [1] was 82 % Ctrl. Further, the “Aβ42 (% Ctrl) _Mean” value in assay [2] is given as 39 % Ctrl.

With `COc1cc(Nc2cc(C(C)C)nc3c2nc(-c2ccc(F)cc2)n3C)ccc1-n1cnc(C)n1` [Compound 110], the “Aβtotal (% Ctrl) _Mean” value in assay [1] was found to be 106 % Ctrl. The “Aβ42 (% Ctrl) _Mean” value in assay [2] is given as 78 % Ctrl.
